Literature values in patent publication US9750250B2, “Conjugated polyelectrolytes and methods of using the same” (STC.UNM, priority 2015, dated 2017).

Conditions: deuterated methanol

singlet oxygen quantum yield ΦΔ of the standard: 0.79±0.02
Compound: CC(=O)c1ccc2ccccc2c1 [2′-acetonaphthone]
